Laboratory results reported in patent US10011571B2, “Preparation method for aromatic heterocyclic compound used as selective JAK3 and/or JAK1 kinase inhibitor and application of aromatic heterocyclic compound” (SHENZHEN CHIPSCREEN BIOSCIENCES, LTD., priority 2014, dated 2018).

Assays:
TYK2 = TYK2 (Homo sapiens (Human), UniProt P29597); assay: Eurofins IC50Profiler radiometric kinase assay, TYK2; format: biochemical; details: 9 semilog concentrations
Description: A proportion of the compounds of the present invention are subjected to kinase profile screening (KinaseProfiler™)) and enzymatic inhibitory activity (IC50Profiler™)) assay by entrusting Eurofins company (http://www.eurofins.com). Besides the kinases in the JAK family, the kinases that have been screened for their activity also include most Group 3F and Group 4 kinases (ITK, BLK, TBK1, VEGFRs, ERBBs, etc.), and blood system related kinases (Zhang J. et al. 2009, Nat. Rev. Cancer., 9: 28-39). The concentration of the test compound for kinase profile screening is 1 μM, and a gradient of 9 semilog concentration gradients are used to determine IC50. Detection is carried out according to standard procedure of Eurofins Company. Briefly, according to the requirements of different kinase reactions, 0.2 μL test compound (50 μM, dissolved in dimethyl sulfoxide (DMSO)) is added to reaction buffer containing specific kinase (the buffer system containing 20 mM MOPS, 1 mM EDTA, 0.01% Brij-35, 5% Glycerol, 0.1% β-mercaptoethanol, 1 mg/mL BSA, or 50 mM TRIS, 0.1 mM EGTA, 0.1 mM Na3VO4, 0.1% β-mercaptoethanol, 1 mg/mL BSA, based on the type of kinase used). […] After drying, radio-activity is detected. […]

[1] = system: IL-2/JAK1 & 3/STAT5 (CTLL-2); assay: Intracellular activity assay, IL-2 induced STAT5 phosphorylation in CTLL-2; format: cell-based; details: Mus musculus; inhibition of STAT5 phosphorylation, CTLL-2, IL-2 10 ng/mL
Description: In this experiment, western blot (WB) and flow cytometry are used to evaluate the intracellular activities of the test compounds by comparing the relative levels of the signals of phosphorylated and non-phosphorylated STATs in 5 cell models, including U937, THP-1, CTLL-2, UT-7/EPO and activated human periphery blood cell (hPBC). The primary antibody and secondary antibody used in WB hybridization in this experiment are purchased from Cell Signaling Company (http://www.cellsignal.com). The fluorescence-labeled antibodies used in flow cytometry are purchased from eBiosciences Company (http://www.ebioscience.com).
CTLL-2 is a T-cell line, and its proliferation and growth depends on cytokine IL-2. […] The intracellular inhibitory activity of the compounds on JAK1/3 can be evaluated by detecting the change of the phosphorylation level of STAT5. […]
(2) Cell fixation and fluorescence labeling: the cells are fixed using paraformaldehyde (30 min), and subsequently treated for membrane permeability in chilled methanol (15 min). […]
(3) Detection by flow cytometry: the detection is carried out using Guava® easyCyte flow cytometer according to the instruction. The median fluorescent intensity (MFI) of a sample is detected using an appropriate cell population. […]

[2] = system: collagen-induced arthritis (CIA) model of rats; assay: Collagen-induced arthritis (CIA) model of rats; format: in vivo; details: rat CIA; for swelling degree induced by arthritis in the rats, compared to the solvent group: 40 mg/kg i.g.; for Inhibitory rate for arthritis score % / Inhibitory rate for paw volume % / Inhibitory rate for toe thickness % / Body weight growth rate %: 14 days after administration, Examples 40 mg/kg i.g. twice/day, MTX 5 mg/kg i.p. twice a week; for Body weight growth rate %: solvent = 100.0; for toxicity to the rats judged from body weight: compared to the solvent group
Protocol: Objective: in this test, arthritis is induced by chicken collagen in Wistar rats. After in vivo administration of the compounds of Example 7 and Example 22, the change of the disease index for arthritis in rats is evaluated to determine the therapeutic effect of the test compounds on rat arthritis.
Experimental animals: 36 female Wistar rats were purchased from the animal experiment center, Sun Yat-Sen University (Guangzhou) with the body weight ranging from 180 to 200 g at the beginning of experiment. Four groups (8 rats in each group) were used as the arthritis model, and another group (4 rats) was used as normal control.
Materials: chicken type II collagen and Freund's complete adjuvant were purchased from Beijing Biolead Science and Technology Development Co., Ltd. Positive control: methotrexat (MTX).
Preparation method: the test compounds were prepared by adding them to freshly prepared 0.2% CMC-Na+0.1% Tween-80 solution in sterile water to a desired concentration and thoroughly mixing through ultrasound.
CIA model: the chicken collagen was fully emulsified in equal volume of freud's complete adjuvant, and subcutaneously injected at the tail root of the rat on day 0 for sensitization (250 μL/rat). Another injection was performed at the tail root on day 7 for supplementary immunization (100 μL/rat). After arthritis occurred (on about day 13), the rats were randomly divided into 4 groups with 8 rats in each group. Administration started on day 14 after the first immunization, and lasted for 14 days. The limbs of a rat were visually inspected, and the severity of arthritis was scored in a range from […]: 0=normal; 1=a slight symptom, with signs, such as red and swollen ankle or wrist; 2=moderate red and swollen ankle or wrist; 3=severe red and swollen paw, including toes; 4=severe swollen joint accompanied with dysfunction; the highest score for each rat was 16. The thickness of toes of posterior limbs and the paw volume were measured at the same time.
Medication: the rats were i.g. administered with the compound of Example 7 at a concentration of 40 mg/kg twice/day; or the rats were i.g. administered with the compound of Example 22 at a concentration of 40 mg/kg twice/day. For the positive control, 5 mg/kg MTX was intraperitoneally injected twice a week. The i.g. administration of solvent was used as the negative control. The data obtained 14 days after administration and before administration were compared.

Sequence of TYK2 (P29597 whole entry, species assumed): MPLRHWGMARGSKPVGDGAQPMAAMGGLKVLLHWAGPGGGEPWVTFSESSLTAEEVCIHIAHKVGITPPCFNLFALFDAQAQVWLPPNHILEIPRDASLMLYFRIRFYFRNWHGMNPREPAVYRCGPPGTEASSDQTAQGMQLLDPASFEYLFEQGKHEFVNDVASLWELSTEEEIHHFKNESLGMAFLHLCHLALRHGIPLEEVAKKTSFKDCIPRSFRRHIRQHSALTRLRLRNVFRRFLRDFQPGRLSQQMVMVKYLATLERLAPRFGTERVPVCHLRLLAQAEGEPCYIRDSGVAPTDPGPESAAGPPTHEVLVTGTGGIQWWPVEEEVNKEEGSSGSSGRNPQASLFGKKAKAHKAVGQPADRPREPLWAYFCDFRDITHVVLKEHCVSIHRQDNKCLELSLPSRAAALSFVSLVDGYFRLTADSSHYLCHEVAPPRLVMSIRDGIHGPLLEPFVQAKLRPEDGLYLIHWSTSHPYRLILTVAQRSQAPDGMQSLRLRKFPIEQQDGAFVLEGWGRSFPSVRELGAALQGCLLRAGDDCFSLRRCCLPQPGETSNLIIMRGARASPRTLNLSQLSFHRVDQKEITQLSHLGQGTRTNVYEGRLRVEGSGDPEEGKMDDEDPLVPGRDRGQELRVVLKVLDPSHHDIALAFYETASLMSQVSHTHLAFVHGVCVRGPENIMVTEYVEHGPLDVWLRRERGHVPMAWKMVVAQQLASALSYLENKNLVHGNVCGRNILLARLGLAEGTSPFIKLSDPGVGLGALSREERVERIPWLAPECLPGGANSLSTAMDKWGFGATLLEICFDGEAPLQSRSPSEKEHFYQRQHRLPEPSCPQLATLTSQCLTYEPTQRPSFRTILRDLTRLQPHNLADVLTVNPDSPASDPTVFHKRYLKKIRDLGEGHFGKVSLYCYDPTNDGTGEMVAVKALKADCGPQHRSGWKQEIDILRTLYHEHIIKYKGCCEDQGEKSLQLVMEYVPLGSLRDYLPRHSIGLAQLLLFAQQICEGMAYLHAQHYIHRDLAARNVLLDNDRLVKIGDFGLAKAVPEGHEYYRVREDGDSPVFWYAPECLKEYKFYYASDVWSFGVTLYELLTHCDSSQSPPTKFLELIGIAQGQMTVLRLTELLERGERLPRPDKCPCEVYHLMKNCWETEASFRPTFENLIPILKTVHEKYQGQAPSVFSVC

Row | SMILES | IC50 (TYK2) [nM] | IC50 [1] [nM] | swelling degree induced by arthritis in the rats, compared to the solvent group [2] | Inhibitory rate for arthritis score % [2] [%] | Inhibitory rate for paw volume % [2] [%] | Inhibitory rate for toe thickness % [2] [%] | Body weight growth rate % [2] [%] | toxicity to the rats judged from body weight [2]
1 | C=CC(=O)N(C)c1cc(Nc2ncc(Cl)c(NCCCNC(=O)c3ccc(C#N)cc3)n2)ccc1F [Example 7, N-(3-(5-chloro-2-(4-fluoro-3-(N-methylacrylamido)phenylamino)pyrimidinyl-4-amino)propyl)-4-cyano-benzamide] | > 10000 | 80 | significantly inhibited | 75.0 | 63.6 | 74.3 | 102.2 | no significant toxicity
2 | C=CC(=O)N(C)c1cc(Nc2ncc(Cl)c(NCCCNC(=O)c3ccc(C(F)(F)F)cc3)n2)ccc1F [Example 22, N-(3-(5-chloro-2-(4-fluoro-3-(N-methylacrylamido)phenylamino)pyrimidinyl-4-amino)propyl)-4-trifluoromethylbenzamide] | > 10000 | – | certain inhibitory effect | 25.5 | 24.6 | 13.9 | 102.0 | no significant toxicity
3 | C=CC(=O)N(C)c1cc(Nc2ncc(Cl)c(NCCCNC(=O)c3ccc(F)cc3)n2)ccc1F [Example 23, N-(3-(5-chloro-2-(4-fluoro-3-(N-methylacrylamido)phenylamino)pyrimidinyl-4-amino)propyl)-4-fluorobenzamide] | – | 130 | – | – | – | – | – | –
